Measurements published in ChEMBL document CHEMBL1201861, “Genomics of Drug Sensitity in Cancer screening data, Wellcome Trust Sanger Institute”.

Tests used:
COR-L279 = assay: SANGER: Inhibition of human COR-L279 cell growth in a cell viability assay.; type: functional, cell-based
DG-75 = assay: cells; type: functional, cell-based; details: Homo sapiens;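 also: growth inhibition of DG-75 cells, read out with a cell viability assay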
Description: SANGER: Inhibition of human DG-75 cell growth in a cell viability assay.

Daudi = assay: cells; type: functional, cell-based; details: Homo sapiens;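 also: growth inhibition of Daudi cells, read out by a viability assay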
Description: SANGER: Inhibition of human Daudi cell growth in a cell viability assay.

EB-3 = assay: cells; type: functional, cell-based; details: Homo sapiens;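 also: human EB-3 cells, growth inhibition read out via a cell viability assay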
Description: SANGER: Inhibition of human EB-3 cell growth in a cell viability assay.

GDM-1 = assay: cells; type: functional, cell-based; details: Homo sapiens;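 also: cell viability readout used to measure growth inhibition of human GDM-1 cells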
Description: SANGER: Inhibition of human GDM-1 cell growth in a cell viability assay.

HCC1599 = assay: cells; type: functional, cell-based; details: Homo sapiens;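 also: growth inhibition of HCC1599 cells, read out in a cell viability assay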
Description: SANGER: Inhibition of human HCC1599 cell growth in a cell viability assay.

HuO9 = assay: cells; type: functional, cell-based, Homo sapiens; details: Homo sapiens, HuO9;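 also: growth inhibition of HuO9 cells, read out with a cell viability assay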
Description: SANGER: Inhibition of human HuO9 cell growth in a cell viability assay.

JIYOYE = assay: cells; type: functional, cell-based; details: Homo sapiens
Description: SANGER: Inhibition of human JiyoyeP-2003 cell growth in a cell viability assay.

K052 = assay: cells; type: functional, cell-based; details: Homo sapiens;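 also: Read-out from a cell viability assay, IC50 reflecting suppression of K052 cell growth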
Description: SANGER: Inhibition of human K052 cell growth in a cell viability assay.

KARPAS-422 = assay: cells; type: functional, cell-based; details: Homo sapiens
Description: SANGER: Inhibition of human KARPAS-422 cell growth in a cell viability assay.

KMS-12-PE = assay: cells; type: functional, cell-based; details: Homo sapiens;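 also: growth inhibition of human KMS-12-PE cells, measured with a cell viability assay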
Description: SANGER: Inhibition of human KMS-12-PE cell growth in a cell viability assay.

LC-1F = assay: cells; type: functional, cell-based; details: Homo sapiens;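 also: growth inhibition of human LC-1F cells, read out with a cell viability assay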
Description: SANGER: Inhibition of human LC-1F cell growth in a cell viability assay.

LOUCY = assay: cells; type: functional, cell-based; details: Homo sapiens;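 also: growth inhibition of human LOUCY cells, read out with a cell viability assay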
Description: SANGER: Inhibition of human LOUCY cell growth in a cell viability assay.

LP-1 = assay: cells; type: functional, cell-based; details: Homo sapiens;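 also: growth inhibition of human LP-1 cells, with the read-out taken from a cell viability assay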
Description: SANGER: Inhibition of human LP-1 cell growth in a cell viability assay.

LU-165 = assay: cells; type: functional, cell-based; details: Homo sapiens
Description: SANGER: Inhibition of human LU-165 cell growth in a cell viability assay.

MDA-MB-134-VI = assay: cells; type: functional, cell-based; details: Homo sapiens
Description: SANGER: Inhibition of human MDA-MB-134-VI cell growth in a cell viability assay.

MHH-CALL-2 = assay: cells; type: functional, cell-based; details: Homo sapiens;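 also: growth inhibition of the cell line, read out in a cell viability assay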
Description: SANGER: Inhibition of human MHH-CALL-2 cell growth in a cell viability assay.

MONO-MAC-6 = assay: cells; type: functional, cell-based; details: Homo sapiens;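 also: cell viability assay measuring growth inhibition of human MONO-MAC-6 cells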
Description: SANGER: Inhibition of human MONO-MAC-6 cell growth in a cell viability assay.

NCI-H1417 = assay: cells; type: functional, cell-based; details: Homo sapiens;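 also: human NCI-H1417 cells, growth inhibition determined with a cell viability readout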
Description: SANGER: Inhibition of human NCI-H1417 cell growth in a cell viability assay.

NCI-H1436 = assay: cells; type: functional, cell-based; details: Homo sapiens;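 also: growth suppression of human NCI-H1436 cells, determined with a cell viability readout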
Description: SANGER: Inhibition of human NCI-H1436 cell growth in a cell viability assay.

NCI-H1694 = assay: cells; type: functional, cell-based; details: Homo sapiens;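 also: cell viability assay measuring inhibition of growth in human NCI-H1694 cells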
Description: SANGER: Inhibition of human NCI-H1694 cell growth in a cell viability assay.

NCI-H1703 = assay: cells; type: functional, cell-based, Homo sapiens; details: Homo sapiens, NCI-H1703;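 also: growth inhibition of NCI-H1703 cells, read out via a cell viability assay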
Description: SANGER: Inhibition of human NCI-H1703 cell growth in a cell viability assay.

NCI-H1882 = assay: cells; type: functional, cell-based; details: Homo sapiens;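 also: growth inhibition of the cell line, determined with a viability assay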
Description: SANGER: Inhibition of human NCI-H1882 cell growth in a cell viability assay.

NCI-H2009 = assay: cells; type: functional, cell-based, Homo sapiens; details: Homo sapiens, NCI-H2009;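 also: cell viability assay measuring inhibition of NCI-H2009 cell growth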
Description: SANGER: Inhibition of human NCI-H2009 cell growth in a cell viability assay.

NCI-H2081 = assay: cells; type: functional, cell-based; details: Homo sapiens;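 also: growth inhibition of human NCI-H2081 cells, read out with a cell viability assay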
Description: SANGER: Inhibition of human NCI-H2081 cell growth in a cell viability assay.

NCI-H2141 = assay: cells; type: functional, cell-based; details: Homo sapiens;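 also: growth inhibition of human NCI-H2141 cells, read out with a cell viability assay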
Description: SANGER: Inhibition of human NCI-H2141 cell growth in a cell viability assay.

NCI-H2171 = assay: cells; type: functional, cell-based; details: Homo sapiens;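 also: growth inhibition of human NCI-H2171 cells, read out by a cell viability assay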
Description: SANGER: Inhibition of human NCI-H2171 cell growth in a cell viability assay.

NCI-H630 = assay: cells; type: functional, cell-based, Homo sapiens; details: Homo sapiens, NCI-H630;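 also: growth inhibition of NCI-H630 cells, read out with a cell viability assay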
Description: SANGER: Inhibition of human NCI-H630 cell growth in a cell viability assay.

NCI-H719 = assay: cells; type: functional, cell-based; details: Homo sapiens;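 also: growth inhibition of the cultured cell line, read out with a viability assay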
Description: SANGER: Inhibition of human NCI-H719 cell growth in a cell viability assay.

SNU-16 = assay: cells; type: functional, cell-based; details: Homo sapiens;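 also: growth inhibition of human SNU-16 cells, determined with a cell viability readout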
Description: SANGER: Inhibition of human NCI-SNU-16 cell growth in a cell viability assay.

P31-FUJ = assay: cells; type: functional, cell-based; details: Homo sapiens;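 also: growth inhibition of P31-FUJ cells, read out with a viability assay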
Description: SANGER: Inhibition of human P31-FUJ cell growth in a cell viability assay.

RL = assay: cells; type: functional, cell-based; details: Homo sapiens
Description: SANGER: Inhibition of human RL cell growth in a cell viability assay.

RPMI-6666 = assay: cells; type: functional, cell-based; details: Homo sapiens
Description: SANGER: Inhibition of human RPMI-6666 cell growth in a cell viability assay.

Raji = assay: cells; type: functional, cell-based; details: Homo sapiens;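 also: cell viability assay measuring inhibition of Raji cell growth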
Description: SANGER: Inhibition of human Raji cell growth in a cell viability assay.

SCC-3 = assay: cells; type: functional, cell-based; details: Homo sapiens;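 also: cell viability assay measuring inhibition of SCC-3 cell growth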
Description: SANGER: Inhibition of human SCC-3 cell growth in a cell viability assay.

SCLC-21H = assay: cells; type: functional, cell-based; details: Homo sapiens;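 also: growth inhibition of cultured human SCLC-21H cells, read out with a cell viability assay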
Description: SANGER: Inhibition of human SCLC-21H cell growth in a cell viability assay.

SJRH30 = assay: cells; type: functional, cell-based; details: Homo sapiens;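 also: growth inhibition of human SJRH30 cells, read out with a cell viability assay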
Description: SANGER: Inhibition of human SJRH30 cell growth in a cell viability assay.

SK-MM-2 = assay: cells; type: functional, cell-based; details: Homo sapiens;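 also: growth inhibition of human SK-MM-2 cells, read out with a cell viability assay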
Description: SANGER: Inhibition of human SK-MM-2 cell growth in a cell viability assay.

SU-DHL-1 = assay: SANGER: Inhibition of human SU-DHL-1 cell growth in a cell viability assay.; type: functional, cell-based
SUP-T1 = assay: cells; type: functional, cell-based; details: Homo sapiens;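 also: growth inhibition of human SUP-T1 cells, read out as cell viability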
Description: SANGER: Inhibition of human SUP-T1 cell growth in a cell viability assay.

ARH-77 = assay: cells; type: functional, cell-based; details: Homo sapiens;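 also: growth inhibition of ARH-77 cells, read out by a cell viability assay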
Description: SANGER: Inhibition of human ARH-77 cell growth in a cell viability assay.

BL-70 = assay: SANGER: Inhibition of human BL-70 cell growth in a cell viability assay.; type: functional, cell-based
BOKU = assay: cells; type: functional, cell-based; details: Homo sapiens;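 also: growth inhibition of the human BOKU cell line, read out by a cell viability assay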
Description: SANGER: Inhibition of human BOKU cell growth in a cell viability assay.

WSU-NHL = assay: cells; type: functional, cell-based; details: Homo sapiens;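 also: growth inhibition of human WSU-NHL cells, read out with a cell viability assay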
Description: SANGER: Inhibition of human WSU-NHL cell growth in a cell viability assay.

CESS = assay: SANGER: Inhibition of human CESS cell growth in a cell viability assay.; type: functional, cell-based
D-423MG = assay: cells; type: functional, cell-based; details: Homo sapiens
Description: SANGER: Inhibition of human D-423MG cell growth in a cell viability assay.

D-566MG = assay: cells; type: functional, cell-based; details: Homo sapiens
EW-22 = assay: cells; type: functional, cell-based; details: Homo sapiens;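 also: growth inhibition of the EW-22 cell line, measured with a cell viability readout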
Description: SANGER: Inhibition of human EW-22 cell growth in a cell viability assay.

KNS-62 = assay: cells; type: functional, cell-based; details: Homo sapiens;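 also: inhibition of cell growth, read out with a cell viability assay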
Description: SANGER: Inhibition of human KNS-62 cell growth in a cell viability assay.

NBsusSR = assay: cells; type: functional, cell-based; details: Homo sapiens;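 also: growth inhibition of the human cell line, read out with a cell viability assay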
Description: SANGER: Inhibition of human NBsusSR cell growth in a cell viability assay.

NCI-H1048 = assay: cells; type: functional, cell-based; details: Homo sapiens;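 also: growth inhibition of human NCI-H1048 cells, read out with a cell viability assay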
Description: SANGER: Inhibition of human NCI-H1048 cell growth in a cell viability assay.

NCI-H1666 = assay: cells; type: functional, cell-based; details: Homo sapiens;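 also: growth inhibition of the cell line, read out with a cell viability assay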
Description: SANGER: Inhibition of human NCI-H1666 cell growth in a cell viability assay.

NCI-H2029 = assay: cells; type: functional, cell-based; details: Homo sapiens;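 also: Read-out is a viability assay on the cultured cells, and IC50 is the concentration that suppresses cell growth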
Description: SANGER: Inhibition of human NCI-H2029 cell growth in a cell viability assay.

NCI-H2291 = assay: cells; type: functional, cell-based; details: Homo sapiens
Description: SANGER: Inhibition of human NCI-H2291 cell growth in a cell viability assay.

SW 1116 = assay: cells; type: functional, cell-based; details: Homo sapiens;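 also: growth inhibition of SW1116 cells, read out with a cell viability assay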
Description: SANGER: Inhibition of human SW1116 cell growth in a cell viability assay.

SW900 = assay: cells; type: functional, cell-based; details: Homo sapiens;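 also: IC50 is the concentration that inhibits SW900 cell growth, measured by a cell viability assay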
Description: SANGER: Inhibition of human SW900 cell growth in a cell viability assay.

A549 = assay: cells; type: functional, cell-based; details: Homo sapiens;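 also: growth inhibition of A549 cells, read out with a cell viability assay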
Description: SANGER: Inhibition of human A549 cell growth in a cell viability assay.

BALL-1 = assay: cells; type: functional, cell-based; details: Homo sapiens;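 also: growth inhibition of BALL-1 cells, read out with a cell viability assay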
Description: SANGER: Inhibition of human BALL-1 cell growth in a cell viability assay.

BT-549 = assay: cells; type: functional, cell-based; details: Homo sapiens
Description: SANGER: Inhibition of human BT-549 cell growth in a cell viability assay.

TGBC11TKB = assay: cells; type: functional, cell-based; details: Homo sapiens;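 also: growth inhibition of human TGBC11TKB cells, measured by a cell viability assay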
Description: SANGER: Inhibition of human TGBC11TKB cell growth in a cell viability assay.

TI-73 = assay: cells; type: functional, cell-based; details: Homo sapiens;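 also: cell viability assay measuring how much compounds suppress growth of the cultured cell line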
Description: SANGER: Inhibition of human TI-73 cell growth in a cell viability assay.

Work on COc1cc([C@@H]2c3cc4c(cc3[C@@H](O[C@@H]3O[C@@H]5CO[C@@H](C)O[C@H]5[C@H](O)[C@H]3O)[C@H]3COC(=O)[C@H]23)OCO4)cc(OC)c1O [ETOPOSIDE] yielded an IC50 (COR-L279) of 1270 nM, an IC50 (DG-75) of over 16000 nM and an IC50 (Daudi) of 5360 nM. For the same compound, the IC50 (EB-3) was over 16000 nM, the IC50 (GDM-1) was 3400 nM and the IC50 (HCC1599) was 616 nM. The IC50 (HuO9) was 926 nM, the IC50 (JIYOYE) was 2540 nM and the IC50 (K052) was over 16000 nM. The IC50 (KARPAS-422) was 4330 nM, the IC50 (KMS-12-PE) was 9910 nM and the IC50 (LC-1F) was over 16000 nM. For the same compound, the IC50 (LOUCY) was 177 nM, the IC50 (LP-1) was over 16000 nM and the IC50 (LU-165) was over 16000 nM. The IC50 (MDA-MB-134-VI) was over 16000 nM, the IC50 (MHH-CALL-2) was over 16000 nM and the IC50 (MONO-MAC-6) was 12100 nM. For the same compound, the IC50 (NCI-H1417) was 4610 nM, the IC50 (NCI-H1436) was over 16000 nM and the IC50 (NCI-H1694) was 1370 nM. The IC50 (NCI-H1703) was 1300 nM, the IC50 (NCI-H1882) was 2680 nM and the IC50 (NCI-H2009) was 697 nM. It also gave an IC50 (NCI-H2081) of 4920 nM, an IC50 (NCI-H2141) of 8520 nM and an IC50 (NCI-H2171) of over 16000 nM. It also gave an IC50 (NCI-H630) of 9120 nM, an IC50 (NCI-H719) of over 16000 nM and an IC50 (SNU-16) of over 16000 nM. The IC50 (P31-FUJ) was over 16000 nM, the IC50 (RL) was over 16000 nM and the IC50 (RPMI-6666) was 1030 nM. The IC50 (Raji) was 8320 nM, the IC50 (SCC-3) was 1210 nM and the IC50 (SCLC-21H) was over 16000 nM. It also gave an IC50 (SJRH30) of 4720 nM, an IC50 (SK-MM-2) of 9680 nM and an IC50 (SU-DHL-1) of 959 nM. For the same compound, the IC50 (SUP-T1) was 706 nM, the IC50 (ARH-77) was 2190 nM and the IC50 (BL-70) was 7070 nM. It also gave an IC50 (BOKU) of 1630 nM, an IC50 (WSU-NHL) of 4360 nM and an IC50 (CESS) of 384 nM.
O=c1cc(-c2cccc3c2Sc2ccccc2S3)oc(N2CCOCC2)c1 [KU-55933] was tested, and the IC50 (D-423MG) was over 10000 nM, the IC50 (D-566MG) was over 10000 nM and the IC50 (EW-22) was over 10000 nM. For the same compound, the IC50 (HuO9) was over 10000 nM, the IC50 (KNS-62) was over 10000 nM and the IC50 (NBsusSR) was over 10000 nM. For the same compound, the IC50 (NCI-H1048) was over 10000 nM, the IC50 (NCI-H1666) was over 10000 nM and the IC50 (NCI-H1703) was over 10000 nM. The IC50 (NCI-H2009) was over 10000 nM, the IC50 (NCI-H2029) was over 10000 nM and the IC50 (NCI-H2291) was over 10000 nM. It also gave an IC50 (NCI-H630) of over 10000 nM, an IC50 (SJRH30) of over 10000 nM and an IC50 (SW 1116) of over 10000 nM. It also gave an IC50 (SW900) of over 10000 nM, an IC50 (A549) of over 10000 nM and an IC50 (BALL-1) of over 10000 nM. The IC50 (BT-549) was over 10000 nM, the IC50 (TGBC11TKB) was over 10000 nM and the IC50 (TI-73) was over 10000 nM.
For Cc1cnc(-c2cnc(NCCNc3ccc(C#N)cn3)nc2-c2ccc(Cl)cc2Cl)[nH]1 [LADUVIGLUSIB], the IC50 (COR-L279) was over 2560 nM, the IC50 (DG-75) was over 2560 nM and the IC50 (Daudi) was over 2560 nM. It also gave an IC50 (EB-3) of over 2560 nM, an IC50 (GDM-1) of over 2560 nM and an IC50 (HCC1599) of over 2560 nM. The IC50 (HuO9) was over 2560 nM, the IC50 (JIYOYE) was over 2560 nM and the IC50 (K052) was over 2560 nM. For the same compound, the IC50 (KARPAS-422) was over 2560 nM, the IC50 (KMS-12-PE) was over 2560 nM and the IC50 (LC-1F) was over 2560 nM. The IC50 (LOUCY) was over 2560 nM, the IC50 (LP-1) was over 2560 nM and the IC50 (LU-165) was over 2560 nM. It also gave an IC50 (MDA-MB-134-VI) of over 2560 nM, an IC50 (MHH-CALL-2) of over 2560 nM and an IC50 (MONO-MAC-6) of over 2560 nM. It also gave an IC50 (NCI-H1417) of over 2560 nM, an IC50 (NCI-H1436) of over 2560 nM and an IC50 (NCI-H1694) of over 2560 nM. For the same compound, the IC50 (NCI-H1703) was over 2560 nM, the IC50 (NCI-H1882) was over 2560 nM and the IC50 (NCI-H2009) was over 2560 nM. It also gave an IC50 (NCI-H2081) of over 2560 nM, an IC50 (NCI-H2141) of over 2560 nM and an IC50 (NCI-H2171) of over 2560 nM. It also gave an IC50 (NCI-H630) of over 2560 nM, an IC50 (NCI-H719) of over 2560 nM and an IC50 (SNU-16) of over 2560 nM. The IC50 (P31-FUJ) was over 2560 nM, the IC50 (RL) was over 2560 nM and the IC50 (RPMI-6666) was over 2560 nM. It also gave an IC50 (Raji) of over 2560 nM, an IC50 (SCC-3) of over 2560 nM and an IC50 (SCLC-21H) of over 2560 nM. For the same compound, the IC50 (SJRH30) was over 2560 nM, the IC50 (SK-MM-2) was over 2560 nM and the IC50 (SU-DHL-1) was over 2560 nM. The IC50 (SUP-T1) was over 2560 nM, the IC50 (ARH-77) was over 2560 nM and the IC50 (BL-70) was over 2560 nM. It also gave an IC50 (BOKU) of over 2560 nM, an IC50 (WSU-NHL) of over 2560 nM and an IC50 (CESS) of over 2560 nM.
